# Experimental data taken from patent US20230250393A1, “PRE-TREATING CARDIOMYOCYTES WITH ANTI-ARRHYTHMIC DRUGS TO REDUCE ENGRAFTMENT ARRHYTHMIA” (priority 2022, published 2023).
# Where two headings read alike, the source gives them in different places. Marks after values point to notes of the source that are not given here.
# Key:
# [1] = tested on: engraftment arrhythmia (EA); conditions: for Effect on HR (heart rate) during EA / Effect: response on EA burden / Effect on rhythm: cardioversion / restoration of sinus rhythm: acute response, infarcted pigs with hESC-CM transplant in EA, dosages and routes as in Table 1; for Effect on EA heart rate and rhythm in the screen (overall): short-term intravenous infusion or oral treatment
# Source text: The objective of this study was to identify a pharmacological regimen to attenuate arrhythmias following cardiac remuscularization therapy. This study was designed in two phases: the first, to observe the natural history of EA and screen various antiarrhythmic agents for efficacy, and the second, to test for efficacy (FIG. 1). All subjects were 30-40 kg castrated male Yucatan minipigs between 6-13 months of age (S&S Farms). In Phase 1, nine subjects underwent cardiac remuscularization therapy with 500×10^6 hESC-CM delivered by direct surgical transepicardial injections or later, by percutaneous transendocardial injections. The first four subjects (one non-infarcted and three infarcted) were followed to learn the natural history of EA and establish clinical endpoints and parameters for the Phase 2 drug trial. The subsequent five subjects underwent systematic dosing with antiarrhythmic agents with continuous electrocardiography (ECG) monitoring to determine effect on rhythm and rate (Table 1).
# (§1) Telemetric ECG was continuously monitored in real-time from the time of myocardial infarction to detect the primary endpoint of cardiac death or unstable EA. Automated quantification of heart rate and arrhythmia burden was performed offline by a board-certified cardiologist using the ecgAUTO™ 3.3.5.10 software package (EMKA Technologies). Arrhythmia was defined as an ectopic beat (e.g. premature ventricular contraction) or rhythm (e.g. idioventricular rhythm, ventricular tachycardia). […] Heart rate and arrhythmia burden were quantified for two continuous minutes every five minutes (40% of total rhythm was counted) and presented as daily averages.
# Subjects were administered multiple trials antiarrhythmics and observed for acute response by continuous ECG monitoring. Intravenous agents were delivered as a bolus dose over 2 minutes. Oral agents were administrated by direct observation in a minimum of apples, apple sauce or pumpkin puree with daily feeding and dosed daily for dose escalation. A washout period of at least three days was provided between agents. Amiodarone was administered as the last agent for testing given concern for prolonged half-life and elimination kinetics. All agents were tested in at least two subjects.
# In Phase 1 of the study, the inventors screened six canonical antiarrhythmic agents broadly targeting sodium channels, potassium channels, and beta-adrenergic receptors: lidocaine (Ib, sodium channel inhibitor), flecainide (Ic, sodium channel inhibitor), propafenone (Ic, sodium channel inhibitor), amiodarone (III, potassium channel inhibitor), sotalol (III, potassium channel inhibitor) and metoprolol (β1-adrenergic receptor inhibitor) for effect on EA heart rate and rhythm. In addition, the funny current/HCN4 channel antagonist, ivabradine, was tested (Table 1). This series were not meant to be definitive but rather to rapidly identify the candidate agents.
# [2] = Amiodarone drug monitoring by liquid chromatography-mass spectrometry; assay type: in vivo; conditions: trough, within 1 week of discontinuation of chronic oral amiodarone, 6 pigs, mean ± SEM
# Procedure: FIG. 8 Plasma amiodarone levels in pigs. Amiodarone levels were measured in plasma by a custom liquid chromatography-mass spectrometry assay. Chronic oral amiodarone in six pigs was discontinued after achieving electrical maturation and stabilization of engraftment arrythmia. Serum through concentrations of amiodarone were assayed weekly including 3-4 weeks after discontinuation.
# A novel liquid chromatography—mass spectrometry assay was established for amiodarone to monitor steady state serum levels in the porcine model and guide oral dosing to ensure efficacy and avoid dose-related toxicity. A target serum level of 1.5-4.0 μg/ml was extrapolated from prior human pharmacokinetic studies (16,17). Elimination kinetics after discontinuation of oral amiodarone therapy were also studied by obtaining weekly trough concentrations in 6 pigs (subjects 6, 7, 8, 13, 14, 16) (FIG. 8).
# [3] = tested on: engraftment arrhythmia (EA); assay type: in vivo; conditions: chronic amiodarone
# Procedure: as §1
# Data are presented as mean±standard error of the mean (SEM).
compound,measurement,setting,value
"CCCCc1oc2ccccc2c1C(=O)c1cc(I)c(OCCN(CC)CC)c(I)c1 [Amiodarone, amiodarone]",Effect on HR (heart rate) during EA,[1],Modest HR effect
same,Average serum amiodarone after discontinuation,[2],0.42 ± 0.12 µg/mL
same,"Burden of EA, chronic treatment (in words)",[3],reduced the burden of EA chronically
"O=C(NCC1CCCCN1)c1cc(OCC(F)(F)F)ccc1OCC(F)(F)F (stereo not shown) [Flecainide, flecainide]",Effect on HR (heart rate) during EA,[1],No response on HR
same,Effect: response on EA burden,[1],No response
same,Effect on EA heart rate and rhythm in the screen (overall),[1],no significant effect
"COc1cc2c(cc1OC)CC(=O)N(CCCN(C)C[C@H]1Cc3cc(OC)c(OC)cc31)CC2 [Ivabradine, ivabradine]",Effect: response on EA burden,[1],"effect (PO only)**, no"
same,Effect on HR (heart rate) during EA,[1]; listed as ivabradine,robust dose-dependent effects on heart rate
same,Effect on rhythm: cardioversion / restoration of sinus rhythm,[1]; listed as ivabradine,did not restore sinus rhythm
same,Adverse effects observed in screening,"[1]; minipig, in vivo",**Severe bradycardia
"CCN(CC)CC(=O)Nc1c(C)cccc1C [Lidocaine, lidocaine]",Effect on HR (heart rate) during EA,[1],Modest HR effect
same,Effect on rhythm: cardioversion / restoration of sinus rhythm,[1],rare
same,Effect on EA heart rate and rhythm in the screen (overall),[1],no significant effect
"COCCc1ccc(OCC(O)CNC(C)C)cc1 (stereo not shown) [Metoprolol, metoprolol]",Effect on HR (heart rate) during EA,[1],"Moderate HR effect (IV only),"
same,Effect: response on EA burden,[1],no response on EA burden
same,Effect on EA heart rate and rhythm in the screen (overall),[1],no significant effect
"CC(C)NCC(O)c1ccc(NS(C)(=O)=O)cc1 (stereo not shown) [Sotalol, sotalol]",Effect on HR (heart rate) during EA,[1],No response on HR
same,Effect: response on EA burden,[1],No response
same,Effect on EA heart rate and rhythm in the screen (overall),[1],no significant effect
